Data published in patent US9951035B2, “Selective matrix metalloproteinase inhibitors” (University of Notre Dame du Lac, priority 2014, dated 2018).
“Also recorded” adds a separate entry of the source. Where a name gives a salt, the structure may show the parent alone. Read-outs that look alike come from different tables or passages of the source.

Legend:
[1] = tested on: diabetic (db/db) mice; assay: Mouse diabetic wound model; assay type: in vivo; conditions: compared with ND-322; in words
From the text: The excisional mouse diabetic model validated by Sullivan et al. was used (Sullivan et al., Plast. Reconstr. Surg. (2004) 113, 953-960). The procedure for inflicting the wounds (single 8 mm wound on the dorsal region) was the same as described previously (Gooyit et al., ACS Chem. Biol. (2014) 9, 505-510). Wounds were photographed and covered with a sterile 3M Tegaderm™ transparent dressing (Butler Schein Animal Health, Inc.).
Female diabetic db/db (BKS.Cg-Dock7m+/+Leprdb/J, 8-weeks old, 38±3 g, n=24) were used for this study. Wounds were inflicted as described. Treatment with the MMP-2 inhibitor (50 μL of 5.0 mg/mL in 80% propylene glycol/20% DMSO, equivalent to 0.25 mg per wound) or vehicle (50 μL of 80% propylene glycol/20% DMSO) was started one day after wound infliction and continued once a day for 14 days. Digital photographs of wounds were taken on days 0, 7, 10, and 14 while the animals were under isoflurane anesthesia. On day 14, all mice were sacrificed. The wounds were excised, embedded in optimal cutting temperature (OCT) compound, and cryosectioned for histological evaluation.
Female diabetic db/db (BKS.Cg-Dock7m+/+Leprdb/J, 8-weeks old, 38±3 g, n=24) were used for this study. Wounds were inflicted and the following day the wounds were treated topically with MMP-8 (50 μL of 20 μg/mL MMP-8 in reaction buffer) or vehicle (50 μL reaction buffer) once a day for 14 days. The reaction buffer consisted of 50 mM Tris (pH 7.5), 10 mM CaCl2, 150 mM NaCl, and 0.05% (w/v) Brij-35. Digital photographs of the wounds were taken on days 0, 7, 10, and 14 while animals were under isoflurane anesthesia. On days 7 and 14, 12 mice (n=6 per group) were sacrificed. The wounds were excised, embedded in OCT compound, and cryosectioned for histological evaluation.
Photographs were taken using the procedure described by Gooyit et al. (ACS Chem Biol. (2014) 9, 505-510) at a fixed distance above the wounds and calibrated using a ruler included in the photographic frame. Image J 1.48c software was used to calculate wound areas. The percentage of wound closure was calculated from the wound area on the specified day relative to that on day 0.
Fresh wound tissue was harvested and embedded in OCT compound. Subsequently, the tissue was cryosectioned for H&E staining (12-μm thickness) and for apoptosis assays and in-situ zymography (8-μm thickness). Re-epithelialization was assessed on a Nikon Eclipse 90i Fluorescent Microscope (Nikon Instruments Inc.) as described earlier (Tkalcevic et al., Toxicol. Pathol. (2009) 37, 183-192). Apoptosis was evaluated using Derma TACS™ Apoptosis detection kits (Trevigen, Inc.) according to the manufacturer's instructions. The protocol of in-situ zymography was adapted from known methods. Gelatinolytic activity was detected in unfixed cryostat sections using DQ-gelatin as a substrate. DQ-gelatin was prepared at a concentration of 20 μg/mL in Tris-buffered saline (TBS) buffer (50 mM TBS pH 7.6, 1 mM CaCl2). A general MMP inhibitor in 0.5 mM EDTA was prepared as a negative control. Cryostat sections were air-dried for 10 min and incubated in the substrate mixture in the presence and absence of EDTA for 1 hr at room temperature. After the incubation period, the slides were washed in PBS (three times, 5 min each), fixed with 4% paraformaldehyde in PBS for 10 min in the dark, washed again with PBS (three times, 5 min each), incubated in the dark for 5 min with 300 nM DAPI solution, and mounted with anti-quenching mounting medium. Fluorescence of FITC was detected with excitation at 460-500 nm and emission at 512-542 nm. DAPI was detected with excitation at 340-380 nm and emission at 425-∞ nm.
Data are expressed as mean±SD. Wound healing between the groups in the studies were analyzed for statistical significance using a paired Student t-test, where p<0.05 was considered statistically significant.

[2] = target: MMP-3 (Homo sapiens (Human), UniProt P08254); assay: Enzyme inhibition studies, MMP-3 catalytic domain; assay type: biochemical; conditions: at 100 μM; listed as ND-336, HCl salt
[3] = target: MMP-2 (Homo sapiens (Human), UniProt P08253); assay: Enzyme inhibition studies, MMP-2; assay type: biochemical; conditions: slow-binding, Ki calculated from koff/kon
[4] = Water solubility (filtrate of saturated aqueous solution, UPLC-MRM)
[5] = target: MMP-7 (Homo sapiens (Human), UniProt P09237); assay: Enzyme inhibition studies, MMP-7; assay type: biochemical; conditions: at 100 μM; listed as ND-336, HCl salt
[6] = target: MMP-1 (Homo sapiens (Human), UniProt P03956); assay: Enzyme inhibition studies, MMP-1 catalytic domain; assay type: biochemical; conditions: at 100 μM; listed as ND-336, HCl salt
[7] = target: MMP-9 (Homo sapiens (Human), UniProt P14780); assay: Gel experiment, cleavage of tau by MMP-9; assay type: biochemical; conditions: in words
[8] = target: ADAM10 (Homo sapiens (Human), UniProt O14672); assay: Enzyme inhibition studies, ADAM10; assay type: biochemical; conditions: at 100 μM; listed as ND-336, HCl salt
[9] = target: MMP-14 (Homo sapiens (Human), UniProt P50281); assay: Enzyme inhibition studies, MMP-14 catalytic domain; assay type: biochemical
[10] = Pharmacokinetics and brain distribution after single iv dose
Description: Mice (male CD-1, 6-7 weeks old, ˜30 g body weight, specific pathogen free) were purchased from Charles River Laboratories, Inc. (Wilmington, Mass., USA).
Samples were analyzed by ultraperformance liquid chromatography (UPLC)/(+)electrospray ionization (ESI)-multiple-reaction monitoring (MRM) with a reversed phase C18 column (Acclaim® RSLC 120 C18, 2.2 μm, 120 Å, 2.1×100 mm, Dionex, Sunnyvale, Calif., USA).
Quantification of the compounds in plasma and brain was obtained using peak-area ratios of the compounds to the internal standard, and the linear-regression parameters obtained from the calibration curves.

[11] = target: ADAM9 (Homo sapiens (Human), UniProt Q13443); assay: Enzyme inhibition studies, ADAM9; assay type: biochemical; conditions: at 100 μM; listed as ND-336, HCl salt
[12] = male, CD-1, mouse, in vivo, 5 mg/kg
[13] = male, CD-1, mouse, in vivo, iv, 5 mg/kg
[14] = plasma, 5 mg/kg single iv, mice

Chain of MMP-2 (P08253 110-660): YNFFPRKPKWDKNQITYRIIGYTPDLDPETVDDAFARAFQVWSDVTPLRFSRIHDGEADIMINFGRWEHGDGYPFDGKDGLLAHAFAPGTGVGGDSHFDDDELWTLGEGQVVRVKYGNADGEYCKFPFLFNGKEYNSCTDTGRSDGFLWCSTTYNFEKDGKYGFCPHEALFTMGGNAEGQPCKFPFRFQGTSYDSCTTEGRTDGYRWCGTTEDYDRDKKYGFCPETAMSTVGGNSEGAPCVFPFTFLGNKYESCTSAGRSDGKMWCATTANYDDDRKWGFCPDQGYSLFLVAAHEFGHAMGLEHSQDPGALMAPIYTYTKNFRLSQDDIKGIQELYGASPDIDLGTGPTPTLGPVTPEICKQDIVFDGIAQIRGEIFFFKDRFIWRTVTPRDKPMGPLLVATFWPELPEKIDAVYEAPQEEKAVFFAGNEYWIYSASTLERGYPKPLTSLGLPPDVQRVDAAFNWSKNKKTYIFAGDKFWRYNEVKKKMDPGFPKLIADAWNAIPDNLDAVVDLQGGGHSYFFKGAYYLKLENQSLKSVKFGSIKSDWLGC
Chain of MMP-7 (P09237 95-267): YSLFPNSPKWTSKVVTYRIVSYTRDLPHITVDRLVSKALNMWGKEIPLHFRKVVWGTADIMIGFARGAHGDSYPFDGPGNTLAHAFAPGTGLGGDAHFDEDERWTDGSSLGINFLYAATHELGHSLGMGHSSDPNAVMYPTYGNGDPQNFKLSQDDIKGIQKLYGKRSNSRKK
Chain of MMP-9 (P14780 94-707, species assumed): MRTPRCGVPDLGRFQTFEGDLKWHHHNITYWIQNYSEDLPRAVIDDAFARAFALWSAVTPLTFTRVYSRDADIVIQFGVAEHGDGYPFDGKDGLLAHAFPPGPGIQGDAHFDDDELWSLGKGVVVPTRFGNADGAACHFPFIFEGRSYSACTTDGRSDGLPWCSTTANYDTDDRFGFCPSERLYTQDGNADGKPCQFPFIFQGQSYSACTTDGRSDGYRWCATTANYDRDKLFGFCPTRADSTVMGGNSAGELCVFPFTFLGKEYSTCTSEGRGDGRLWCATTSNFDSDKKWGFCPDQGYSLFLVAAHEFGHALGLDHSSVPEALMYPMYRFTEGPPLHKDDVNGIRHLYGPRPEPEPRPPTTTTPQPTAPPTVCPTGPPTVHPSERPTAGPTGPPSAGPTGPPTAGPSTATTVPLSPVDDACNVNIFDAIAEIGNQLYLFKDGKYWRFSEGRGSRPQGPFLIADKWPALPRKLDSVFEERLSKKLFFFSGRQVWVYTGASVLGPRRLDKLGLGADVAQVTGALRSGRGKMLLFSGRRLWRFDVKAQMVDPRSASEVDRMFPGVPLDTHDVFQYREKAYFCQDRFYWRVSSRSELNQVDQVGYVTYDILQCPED
Chain of MMP-3 (P08254 100-272): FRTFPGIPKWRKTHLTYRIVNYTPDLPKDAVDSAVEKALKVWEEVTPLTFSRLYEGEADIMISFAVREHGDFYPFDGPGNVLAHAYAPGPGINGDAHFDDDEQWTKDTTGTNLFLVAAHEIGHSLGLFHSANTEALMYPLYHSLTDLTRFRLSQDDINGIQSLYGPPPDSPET
Chain of ADAM10 (O14672 214-672): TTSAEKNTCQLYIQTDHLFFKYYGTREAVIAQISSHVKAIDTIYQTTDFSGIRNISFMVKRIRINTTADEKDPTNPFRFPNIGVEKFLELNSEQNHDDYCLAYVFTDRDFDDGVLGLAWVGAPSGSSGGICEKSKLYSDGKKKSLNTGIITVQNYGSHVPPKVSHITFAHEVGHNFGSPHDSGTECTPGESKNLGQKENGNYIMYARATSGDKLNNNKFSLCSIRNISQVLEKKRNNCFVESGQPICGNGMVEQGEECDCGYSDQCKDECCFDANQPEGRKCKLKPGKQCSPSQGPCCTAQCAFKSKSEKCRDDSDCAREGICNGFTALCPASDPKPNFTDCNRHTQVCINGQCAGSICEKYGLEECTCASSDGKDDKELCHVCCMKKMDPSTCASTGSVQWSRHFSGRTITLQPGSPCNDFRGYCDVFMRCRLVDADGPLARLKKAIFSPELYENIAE
Chain of MMP-1 (P03956 98-276): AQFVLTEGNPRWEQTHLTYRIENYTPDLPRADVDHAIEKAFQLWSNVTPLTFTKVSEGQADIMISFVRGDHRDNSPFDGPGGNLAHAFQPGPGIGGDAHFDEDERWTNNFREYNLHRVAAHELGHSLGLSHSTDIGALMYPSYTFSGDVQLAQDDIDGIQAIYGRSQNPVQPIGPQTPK
Chain of ADAM9 (Q13443 206-697): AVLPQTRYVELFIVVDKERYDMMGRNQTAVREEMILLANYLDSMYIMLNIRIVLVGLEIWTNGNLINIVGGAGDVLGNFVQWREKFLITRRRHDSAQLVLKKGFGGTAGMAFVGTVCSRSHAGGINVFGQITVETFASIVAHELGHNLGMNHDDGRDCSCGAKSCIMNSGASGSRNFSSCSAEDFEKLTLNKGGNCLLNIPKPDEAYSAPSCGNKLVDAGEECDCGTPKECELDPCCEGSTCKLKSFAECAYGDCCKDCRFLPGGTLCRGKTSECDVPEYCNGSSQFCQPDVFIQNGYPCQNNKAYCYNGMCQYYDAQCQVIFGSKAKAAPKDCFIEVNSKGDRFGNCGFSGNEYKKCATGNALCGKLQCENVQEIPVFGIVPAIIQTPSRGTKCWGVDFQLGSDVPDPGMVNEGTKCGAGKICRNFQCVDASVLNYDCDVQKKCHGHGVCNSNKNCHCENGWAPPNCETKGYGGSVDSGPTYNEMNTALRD

Question: With NCc1ccc(Oc2ccc(S(=O)(=O)CC3CS3)cc2)cc1 (stereo not shown) [Compound 5, (4-(4-((Thiiran-2-ylmethyl)sulfonyl)phenoxy)phenyl)methanamine HCl salt] as the molecule, how does the “efficacy in mouse model of diabetic wound healing” value [1] read?
Answer: significantly better efficacy than ND-322

Question: What about the Inhibition [2] of the same molecule?
Answer: Ki (MMP-3) 23% inhibition at 100 μM

Question: What about the Ki ([3]; Ki) of the same molecule?
Answer: 85 ± 1 nM

Question: And the Ki [3]?
Answer: 85 nM

Question: What about the Aq. solubility ([4]; HCl salt) of the same molecule?
Answer: 4900 µg/mL

Question: What about the Aq. solubility ([4]; listed as ND-336, HCl salt) of the same molecule?
Answer: Water Solubility 4.9 mg/mL

Question: And the solubility ([4]; thermodynamic from solid)?
Answer: 4900 µg/mL

Question: What about the Inhibition [5] of the same molecule?
Answer: Ki (MMP-7) 1% inhibition at 100 μM

Question: What about the Inhibition [6] of the same molecule?
Answer: Ki (MMP-1) 4% inhibition at 100 μM

Question: What about the “cleavage of tau in the presence of MMP-9” value [7] of the same molecule?
Answer: prevents cleavage of tau

Question: And the Inhibition [8]?
Answer: Ki (ADAM-10) 14% inhibition at 100 μM

Question: What about the Ki [9] of the same molecule?
Answer: 120 ± 10 nM

Question: And the Ki ([9]; catalytic domain, slow-binding, Ki from koff/kon)?
Answer: 120 nM

Question: And the “time brain levels above Ki for MMP-2” value ([10]; 5 mg/kg single iv, mice)?
Answer: at least 30 min

Question: And the “time brain levels above Ki for MMP-9” value ([10]; 5 mg/kg single iv, mice)?
Answer: at least 30 min

Question: And the “time plasma levels above Ki for MMP-2” value ([10]; 5 mg/kg single iv, mice)?
Answer: at least 30 min

Question: What about the “time plasma levels above Ki for MMP-9” value ([10]; 5 mg/kg single iv, mice) of the same molecule?
Answer: at least 30 min

Question: What about the Brain concentration ([10]; 2 min after 5 mg/kg single iv, mice) of the same molecule?
Answer: 5.55 ± 2.38 pmol/mg tissue

Question: And the Brain concentration ([10]; 5 min after 5 mg/kg single iv, mice)?
Answer: 2.97 ± 2.41 pmol/mg tissue

Question: And the Brain concentration ([10]; 10 min after 5 mg/kg single iv, mice)?
Answer: 1.20 ± 0.50 pmol/mg tissue

Question: What about the Brain concentration ([10]; 30 min after 5 mg/kg single iv, mice) of the same molecule?
Answer: 0.213 ± 0.143 pmol/mg tissue

Question: What about the Brain concentration ([10]; 60 min after 5 mg/kg single iv, mice) of the same molecule?
Answer: 0.0368 ± 0.0232 pmol/mg tissue

Question: And the Brain concentration ([10]; 90 min after 5 mg/kg single iv, mice)?
Answer: 0.0213 ± 0.0106 pmol/mg tissue

Question: What about the Brain concentration ([10]; 120 min after 5 mg/kg single iv, mice) of the same molecule?
Answer: 0.0158 ± 0.0125 pmol/mg tissue

Question: And the Brain concentration ([10]; 240 min after 5 mg/kg single iv, mice)?
Answer: 0.00531 ± 0.00402 pmol/mg tissue

Question: What about the AUC0-last ([10]; brain, 5 mg/kg single iv, mice) of the same molecule?
Answer: 57.7 pmol·min/mg

Question: And the “AUC0-∞” value ([10]; brain, 5 mg/kg single iv, mice)?
Answer: 58.3 pmol·min/mg

Question: And the t1/2α ([10]; brain, 5 mg/kg single iv, mice)?
Answer: 3.32 min

Question: What about the t1/2β ([10]; brain, 5 mg/kg single iv, mice) of the same molecule?
Answer: 75.3 min

Question: And the “crossing of the blood-brain barrier” value ([10]; in words, listed as ND-336, HCl salt)?
Answer: cross the blood-brain barrier; also recorded: crosses the BBB

Question: And the concentration at 2 min [10, 12]?
Answer: 4350 ± 1100 nM

Question: And the concentration at 5 min [10, 12]?
Answer: 3150 ± 1490 nM

Question: And the concentration at 10 min [10, 12]?
Answer: 2390 ± 820 nM

Question: And the concentration at 30 min [10, 12]?
Answer: 377 ± 116 nM

Question: What about the concentration at 60 min [10, 12] of the same molecule?
Answer: 57.4 ± 31.6 nM

Question: And the concentration at 90 min [10, 12]?
Answer: 33.2 ± 6.5 nM

Question: What about the concentration at 120 min [10, 12] of the same molecule?
Answer: 21.8 ± 5.4 nM

Question: And the concentration at 240 min [10, 12]?
Answer: 6.94 ± 6.06 nM

Question: What about the AUC(0-inf) [10, 13] of the same molecule?
Answer: 1.23 µM·h

Question: And the AUC(0-t) [10, 13]?
Answer: 1.22 µM·h

Question: And the Kp [10, 13]?
Answer: 0.793

Question: What about the Vd [10, 13] of the same molecule?
Answer: 2.76 L/kg

Question: What about the clearance [10, 13] of the same molecule?
Answer: 202 mL/min/kg

Question: What about the AUC0-last [10, 14] of the same molecule?
Answer: 72.9 µM·min

Question: And the “AUC0-∞” value [10, 14]?
Answer: 73.6 µM·min

Question: And the CL [10, 14]?
Answer: 202 mL/min/kg

Question: What about the t1/2α [10, 14] of the same molecule?
Answer: 6.47 min

Question: What about the t1/2β [10, 14] of the same molecule?
Answer: 68.0 min

Question: What about the Inhibition [11] of the same molecule?
Answer: Ki (ADAM-9) 31% inhibition at 100 μM
